Laboratory results: patent publication US10322108B2, “N-benzoate group substituted benzopyrroline-2-one derivative and use thereof” (BEIJING HANMI PHARMACEUTICAL CO., LTD., priority 2015, dated 2019)
pIC50: −log10 of the molar value. Read-outs that look alike come from different tables or passages of the source.

Target: RORγ-LBD (Homo sapiens (Human), UniProt P51449)
Assay: LanthaScreen TR-FRET screening of RORγ-LBD / co-activator (Fluorescein-D22) interaction
[1] = read-out: IC50 Values, TR-FRET, 2 nM RORγ-LBD, 150 nM Fluorescein-D22 co-activator

Sequence of RORγ-LBD (P51449 269-508): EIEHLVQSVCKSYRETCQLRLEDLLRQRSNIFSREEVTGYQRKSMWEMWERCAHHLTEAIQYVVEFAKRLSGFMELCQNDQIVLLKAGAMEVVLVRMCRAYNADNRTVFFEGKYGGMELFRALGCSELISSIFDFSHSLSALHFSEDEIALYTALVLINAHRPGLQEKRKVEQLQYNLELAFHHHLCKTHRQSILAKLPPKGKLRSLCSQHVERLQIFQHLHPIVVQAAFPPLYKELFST

`Cc1cccc2c1/C(=C/c1c(Cl)cccc1Br)C(=O)N2c1ccc(C(=O)O)c(O)c1` [Example 7, (trans)-4-(3-(2-chloro-6-bromo-benzylidene)-4-methylindolin-2-on-1-yl)-2-hydroxybenzolic acid] showed a pIC50 [1] greater than 7.00.

In the case of `Cc1cccc2c1/C(=C/c1c(Cl)cccc1C(C)C)C(=O)N2c1ccc(C(=O)O)c(O)c1` [Example 36, (trans)-4-(3-(2-chloro-6-isopropyl-benzylidene)-4-methylindolin-2-on-1-yl)-2-hydroxybenzolic acid], the pIC50 [1] was greater than 7.00.

Compound `Cc1cccc2c1/C(=C/c1c(Cl)cccc1C1CC1)C(=O)N2c1ccc(C(=O)O)c(F)c1` [Example 25, (trans)-4-(3-(2-chloro-6-cyclopropyl-benzylidene)-4-methylindolin-2-on-1-yl)-2-fluoro-benzoic acid] has a pIC50 of 6.00 to 7.00.

`O=C(O)c1ccc(N2C(=O)/C(=C/c3c(Cl)cccc3Cl)c3c(F)cccc32)cc1O` [Example 22B, (cis)-4-(3-(2,6-dichloro-benzylidene)-4-fluoro-indolin-2-on-1-yl)-2-hydroxy-benzoic acid] showed a pIC50 [1] greater than 7.00.

`Cc1cccc2c1/C(=C/c1c(Cl)cccc1C(F)(F)F)C(=O)N2c1ccc(C(=O)O)c(O)c1` [Example 6, (trans)-4-(3-(2-chloro-6-(trifluoromethyl)-benzylidene)-4-methylindolin-2-on-1-yl)-2-hydroxybenzoic acid] showed a pIC50 [1] greater than 7.00.

Compound `O=C(O)c1ccc(N2C(=O)/C(=C/c3c(Cl)cccc3C3CC3)c3c(F)cccc32)cc1O` [Example 21B, (cis)-4-(3-(2-chloro-6-cyclopropyl-benzylidene)-4-fluoro-indolin-2-on-1-yl)-2-hydroxy-benzoic acid] has a pIC50 of 6.00 to 7.00.

`Cc1cccc2c1/C(=C/c1c(Cl)cccc1C1CCC1)C(=O)N2c1ccc(C(=O)O)cc1` [Example 34] showed a pIC50 [1] greater than 7.00.

For `COc1cccc2c1/C(=C/c1c(Cl)cccc1C1CC1)C(=O)N2c1ccc(C(=O)O)cc1` [Example 30], the pIC50 [1] was greater than 7.00.

Work on `O=C(O)c1ccc(N2C(=O)/C(=C\c3c(Cl)cccc3C3CC3)c3c(F)cccc32)cc1O` [Example 21A, (trans)-4-(3-(2-chloro-6-cyclopropyl-benzylidene)-4-fluoro-indolin-2-on-1-yl)-2-hydroxy-benzoic acid] yielded a pIC50 [1] greater than 7.00.

For `CCCc1cccc(Cl)c1/C=C1\C(=O)N(c2ccc(C(=O)O)cc2)c2cccc(F)c21` [Example 20A, (trans)-4-(3-(2-chloro-6-n-propyl-benzylidene)-4-fluoro-indolin-2-on-1-yl)-benzoic acid], the pIC50 was 6.00 to 7.00.

`O=C(O)c1ccc(N2C(=O)/C(=C\c3c(Cl)cccc3Cl)c3c(Cl)cccc32)cc1` [Example 23, (trans)-4-(3-(2,6-dichloro-benzylidene)-4-chloro-indolin-2-on-1-yl)-benzoic acid] gave a pIC50 [1] greater than 7.00.

With `COc1cccc2c1/C(=C/c1c(Cl)cccc1Cl)C(=O)N2c1ccc(C(=O)O)c(O)c1` [Example 11, (trans)-4-(3-(2,6-dichloro-benzylidene)-4-methoxyindolin-2-on-1-yl)-2-hydroxybenzolic acid] the pIC50 was 6.00 to 7.00.

For `O=C(O)c1ccc(N2C(=O)/C(=C\c3c(Cl)cccc3C3CC3)c3c(-c4ccccc4)cccc32)cc1` [Example 13], the pIC50 was 6.00 to 7.00.

In the case of `O=C(O)c1ccc(N2C(=O)/C(=C\c3c(Cl)cccc3C3CC3)c3c(C4CC4)cccc32)cc1O` [Example 12, (trans)-4-(3-(2-chloro-6-cyclopropyl-benzylidene)-4-cyclopropylindolin-2-on-1-yl)-2-hydroxybenzolic acid], the pIC50 [1] was greater than 7.00.

`O=C(O)c1ccc(N2C(=O)/C(=C\c3c(F)cccc3Cl)c3c(F)cccc32)cc1` [Example 17A, (trans)-4-(3-(2-chloro-6-fluoro-benzylidene)-4-fluoro-indolin-2-on-1-yl)-benzoic acid] gave a pIC50 of 6.00 to 7.00.

Compound `CCCc1cccc(Cl)c1/C=C1/C(=O)N(c2ccc(C(=O)O)cc2)c2cccc(F)c21` [Example 20B, (cis)-4-(3-(2-chloro-6-n-propyl-benzylidene)-4-fluoro-indolin-2-on-1-yl)-benzoic acid] has a pIC50 of 6.00 to 7.00.

`O=C(O)c1ccc(N2C(=O)/C(=C\c3c(Cl)cccc3Cl)c3c(F)cccc32)cc1O` [Example 22A, (trans)-4-(3-(2,6-dichloro-benzylidene)-4-fluoro-indolin-2-on-1-yl)-2-hydroxy-benzoic acid] gave a pIC50 [1] greater than 7.00.

`Cc1cccc2c1/C(=C\c1c(Cl)cccc1C1CC1)C(=O)N2c1ccc(C(=O)O)cc1` [Example 2B, (trans)-4-(3-(2-chloro-6-cyclopropyl-benzylidene)-4-methylindolin-2-on-1-yl)-benzoic acid] showed a pIC50 of 6.00 to 7.00.

Work on `CCc1cccc(Cl)c1/C=C1\C(=O)N(c2ccc(C(=O)O)c(O)c2)c2cccc(C)c21` [Example 37, (trans)-4-(3-(2-chloro-6-ethyl-benzylidene)-4-methylindolin-2-on-1-yl)-2-hydroxybenzolic acid] yielded a pIC50 [1] greater than 7.00.

`COc1cccc2c1/C(=C/c1c(Cl)cccc1C1CC1)C(=O)N2c1ccc(C(=O)O)c(O)c1` [Example 8] gave a pIC50 [1] greater than 7.00.

`Cc1cccc2c1/C(=C/c1c(Cl)cccc1Cl)C(=O)N2c1ccc(C(=O)O)cc1` [Example 5, (trans)-4-(3-(2,6-dichlorobenzylidene)-4-methylindolin-2-on-1-yl)-benzoic acid] was tested, and the pIC50 [1] was greater than 7.00.

Compound `O=C(O)c1ccc(N2C(=O)/C(=C\c3c(Cl)cccc3C3CC3)c3c(F)cccc32)cc1` [Example 16A, (trans)-4-(3-(2-chloro-6-cyclopropyl-benzylidene)-4-fluoro-indolin-2-on-1-yl)-benzoic acid] has a pIC50 [1] greater than 7.00.

`O=C(O)c1ccc(N2C(=O)/C(=C\c3c(Cl)cccc3C3CC3)c3c(Cl)cccc32)cc1O` [Example 14, 4-(3-(2-chloro-6-cyclopropyl-benzylidene)-4-chloro-indolin-2-on-1-yl)-2-hydroxybenzolic acid] gave a pIC50 of 6.00 to 7.00.

Compound `COc1cccc2c1/C(=C/c1c(Cl)cccc1Cl)C(=O)N2c1ccc(C(=O)O)cc1` [Example 31, (trans)-4-(3-(2,6-dichloro-benzylidene)-4-methoxyindolin-2-on-1-yl)-benzoic acid] has a pIC50 of 5.00 to 6.00.

With `Cc1cccc2c1/C(=C/c1c(Cl)cccc1C1CC1)C(=O)N2c1ccc(C(=O)O)c(Cl)c1` [Example 24, (trans)-4-(3-(2-chloro-6-cyclopropyl-benzylidene)-4-methylindolin-2-on-1-yl)-2-chloro-benzoic acid] the pIC50 was 6.00 to 7.00.

`Cc1cccc2c1/C(=C/c1c(Cl)cccc1C1CCC1)C(=O)N2c1ccc(C(=O)O)c(O)c1` [Example 35] gave a pIC50 of 6.00 to 7.00.

`O=C(O)c1ccc(N2C(=O)/C(=C/c3c(Cl)cccc3C(F)(F)F)c3c(F)cccc32)cc1` [Example 19B, (cis)-4-(3-(2-chloro-6-trifluoromethyl-benzylidene)-4-fluoro-indolin-2-on-1-yl)-benzoic acid] was tested, and the pIC50 [1] was greater than 7.00.

Work on `O=C(O)c1ccc(N2C(=O)/C(=C\c3c(Cl)cccc3C(F)(F)F)c3c(F)cccc32)cc1` [Example 19A, (trans)-4-(3-(2-chloro-6-trifluoromethyl-benzylidene)-4-fluoro-indolin-2-on-1-yl)-benzoic acid] yielded a pIC50 [1] greater than 7.00.

Work on `O=C(O)c1ccc(N2C(=O)/C(=C\c3c(F)cccc3F)c3c(F)cccc32)cc1` [Example 18A, (trans)-4-(3-(2,6-difluoro-benzylidene)-4-fluoro-indolin-2-on-1-yl)-benzoic acid] yielded a pIC50 of 5.00 to 6.00.

Work on `O=C(O)c1ccc(N2C(=O)/C(=C/c3c(F)cccc3F)c3c(F)cccc32)cc1` [Example 18B, (cis)-4-(3-(2,6-difluoro-benzylidene)-4-fluoro-indolin-2-on-1-yl)-benzoic acid] yielded a pIC50 of 5.00 to 6.00.

`Cc1cccc(Cl)c1/C=C1\C(=O)N(c2ccc(C(=O)O)cc2)c2cccc(C)c21` [Example 29, (trans)-4-(3-(2-chloro-6-methyl-benzylidene)-4-methylindolin-2-on-1-yl)-benzoic acid] was tested, and the pIC50 was 6.00 to 7.00.

`Cc1cccc2c1/C(=C/c1c(F)cccc1Cl)C(=O)N2c1ccc(C(=O)O)c(O)c1` [Example 9] showed a pIC50 [1] greater than 7.00.

`COc1cccc(Cl)c1/C=C1\C(=O)N(c2ccc(C(=O)O)cc2)c2cccc(C)c21` [Example 32, (trans)-4-(3-(2-chloro-6-methoxy-benzylidene)-4-methylindolin-2-on-1-yl)-benzoic acid] showed a pIC50 of 5.00 to 6.00.

`Cc1cccc2c1/C(=C/c1c(Cl)cccc1C1CC1)C(=O)N2c1ccc(C(=O)O)c(N)c1` [Example 33] was tested, and the pIC50 was 5.00 to 6.00.

`O=C(O)c1ccc(N2C(=O)/C(=C/c3c(F)cccc3Cl)c3c(F)cccc32)cc1` [Example 17B, (cis)-4-(3-(2-chloro-6-fluoro-benzylidene)-4-fluoro-indolin-2-on-1-yl)-benzoic acid] was tested, and the pIC50 was 6.00 to 7.00.
